Reference: ChEMBL document CHEMBL3045786, “Insect antifeedant activity of tetranortriterpenoids from the Rutales. A perusal of structural relations” (2002)

System: Spodoptera litura
Assay: Feeding index against larvae of Spodoptera litura in castor leaves =

`CC(=O)OC1=C2C(C)(C)C(=O)C=C[C@]2(C)[C@H]2CC[C@@]3(C)[C@H](c4ccoc4)C[C@H]4O[C@]43[C@]2(C)C1=O` [CEDRELONE ACETATE] was tested, and the PFI was 55%.
With `CC(=O)O[C@@H]1C[C@H]2C(C)(C)C(=O)C=C[C@]2(C)[C@H]2CC[C@]3(C)C(=CC(=O)[C@H]3C3=CC(O)OC3=O)[C@@]21C` (stereo partly drawn) [AZADIRADIONE PP] the PFI was 34.7%.
In the case of `CC1(C)C(=O)C=C[C@@]2(C)C1=C(O)C(=O)[C@]1(C)[C@@H]2CC[C@@]2(C)[C@H](C3=CC(O)OC3=O)C[C@H]3O[C@]321` (stereo partly drawn) [CEDRELONE PP-OH], the PFI is reported as 22.4%.
With `CC(=O)O[C@@H]1[C@H](O)[C@H]2C(C)(C)C(=O)C=C[C@]2(C)[C@H]2CC[C@]3(C)C(=CC[C@H]3C3=CCOC3=O)[C@]12C` [NIMONOL MW] the PFI was 44.2%.
In the case of `COC1=C2C(C)(C)C(=O)C=C[C@]2(C)[C@H]2CC[C@@]3(C)[C@H](c4ccoc4)C[C@H]4O[C@]43[C@]2(C)C1=O` [CEDRELONEMETHYL ETHER], the PFI is reported as 56%.
`COC(=O)C[C@H]1[C@]2(C)C3=C(C)[C@H](c4ccoc4)C[C@H]3O[C@@H]2C(=O)[C@@H]2[C@]1(C)C(=O)C=C[C@@]2(C)C(=O)OC` [6-OXONIMBIN] was tested, and the PFI was 42.3%.
Work on `COC1=C2C(C)(C)C(=O)[C@H]3O[C@H]3[C@]2(C)[C@H]2CC[C@@]3(C)[C@H](c4ccoc4)C[C@H]4O[C@]43[C@]2(C)C1=O` [METHYL ETHER CEDRELONEEPOXIDE] yielded a PFI of 54%.
With `CC1(C)C(=O)C=C[C@@]2(C)C1=C(O)C(=O)[C@]1(C)[C@@H]2CC[C@@]2(C)[C@H](c3ccoc3)C[C@H]3O[C@]321` [CEDRELONE] the PFI was 51.5%.
Compound `CC(=O)O[C@@H]1[C@H](O)[C@H]2C(C)(C)C(=O)C=C[C@]2(C)[C@H]2CC[C@@]3(C)[C@H](C4=CC(O)OC4=O)C[C@@H]4O[C@@]43[C@]12C` (stereo partly drawn) [NIMONOLIDE] has a PFI of 21.3%.
`C/C=C(\C)C(=O)O[C@H]1C[C@@H](O)[C@@]2(C)CO[C@H]3[C@H]4O[C@@H]5C[C@@H](C6=CCOC6=O)C(C)=C5[C@@]4(C)[C@H](CC(=O)OC)[C@]1(C)[C@@H]32` [DESACETYLSALANNOBUTYROLACTONE] gave a PFI of 40.35%.
`CC(=O)O[C@@H]1C(=O)[C@H]2C(C)(C)C(=O)C=C[C@]2(C)[C@H]2CC[C@]3(C)C(=CC[C@H]3c3ccoc3)[C@]12C` [6-OXONIMONOL] showed a PFI of 44.2%.
For `CC(=O)O[C@@H]1C[C@@H](O)[C@@]2(C)[C@@H](C[C@@H](OC(C)=O)[C@@]3(C)C4=CC[C@@H](C5=C[C@@H](CC(C)C)O[C@@H]5O)[C@]4(C)C[C@@H](O)[C@@H]32)C1(C)C` [3R-ACETOXY-1R-HYDROXYAZADIRACHTOL], the PFI was 4.2%.
For `C/C=C(\C)C(=O)O[C@H]1C[C@@H](OC(C)=O)[C@@]2(C)CO[C@H]3[C@H]4O[C@@H]5CC(C6=CC(=O)OC6O)=C(C)C5[C@@]4(C)[C@H](CC(=O)OC)[C@]1(C)[C@@H]32` (stereo partly drawn) [SALANNIN PP1], the PFI was 29.1%.
`C/C=C(\C)C(=O)O[C@H]1CC(=O)[C@@]2(C)CO[C@H]3[C@H]4O[C@@H]5C[C@@H](c6ccoc6)C(C)=C5[C@@]4(C)[C@H](CC(=O)OC)[C@]1(C)[C@@H]32` [3-OXOSALANNIN] showed a PFI of 42.9%.
Work on `CC1(C)C(=O)C=C[C@@]2(C)C1=C(O)C(=O)[C@@]1(C)C3=CC[C@@H](c4ccoc4)[C@]3(C)CC[C@@H]12` [DESEPOXYCEDRELONE] yielded a PFI of 55.3%.
`CC(=O)O[C@@H]1[C@H](O)[C@H]2C(C)(C)C(=O)CC[C@]2(C)[C@H]2CC[C@]3(C)C(=CC[C@H]3C3=CC(O)OC3=O)[C@]12C` (stereo partly drawn) [ISOMELDENIN PP] showed a PFI of 28.3%.
With `CC(=O)OC1=C2C(C)(C)C(=O)[C@H]3O[C@H]3[C@]2(C)[C@H]2CC[C@@]3(C)[C@H](c4ccoc4)C[C@H]4O[C@]43[C@]2(C)C1=O` [CEDRELONEEPOXIDE ACETATE] the PFI was 53.2%.
`C/C=C(\C)C(=O)O[C@@H]1[C@@H]2C=C3[C@@H]4CC(=O)O[C@@H](C5=CC(O)OC5=O)[C@]4(C)CC[C@@H]3[C@@](C)(C2=O)[C@@H]([C@@H](O)C(=O)OC)C1(C)C` (stereo partly drawn) [SWIETENINE PP] showed a PFI of 40.2%.
Compound `CC(=O)OC1[C@H](O)[C@H]2C(C)(C)C(=O)CC[C@]2(C)[C@H]2CC[C@]3(C)C(=CC[C@H]3c3ccoc3)[C@]12C` (stereo partly drawn) [ISOMELDENIN] has a PFI of 60.6%.
With `COC(=O)[C@H]1OC[C@]23[C@@H]1[C@](C)([C@]14O[C@@]1(C)[C@H]1C[C@@H]4O[C@@H]4OC=C[C@@]41O)[C@H](O)[C@@H]1OC[C@](C(=O)OC)([C@H](O)C[C@@H]2O)[C@H]13` [AZADIRACHTOL] the PFI was 6.1%.
Work on `C/C=C(\C)C(=O)O[C@H]1C[C@@H](OC(C)=O)[C@@]2(C)CO[C@H]3[C@H]4O[C@@H]5C[C@@H](C6=CCOC6=O)C(C)=C5[C@@]4(C)[C@H](CC(=O)OC)[C@]1(C)[C@@H]32` [SALANNOBUTYROLACTONE] yielded a PFI of 46.3%.
With `CC(=O)O[C@@H]1[C@H](O)[C@H]2C(C)(C)C(=O)C=C[C@]2(C)[C@H]2CC[C@@]3(C)[C@H](c4ccoc4)C[C@H]4O[C@]43[C@]12C` [EPOXY NIMONOL] the PFI was 32%.
`CC1(C)C(=O)CC[C@@]2(C)C1=C(O)C(=O)[C@]1(C)[C@@H]2CC[C@@]2(C)[C@H](c3ccoc3)C[C@H]3O[C@]321` [DIHYDROCEDRELONE] showed a PFI of 50.5%.
In the case of `C/C=C(\C)C(=O)O[C@@H]1[C@@H]2OC[C@]3(C)[C@H](O)C[C@H](O)[C@@]4(CO[C@H](C(=O)OC)[C@H]4[C@]1(C)[C@]14O[C@@]1(C)[C@H]1C[C@@H]4O[C@@H]4OC=C[C@@]41O)[C@@H]23` [3-TIGLOYL MELIACARPIN], the PFI is reported as 13.3%.
With `C=C1[C@@H]2CC[C@@]3(C)[C@H](c4ccoc4)OC(=O)C[C@]13O[C@H]1CC(=O)C(C)(C)[C@H](CC(=O)OC)[C@]12C` [METHYLANGOLENSATE] the PFI was 65.3%.
For `C/C=C(\C)C(=O)O[C@@H]1[C@@H]2C=C3[C@@H]4CC(=O)O[C@@H](c5ccoc5)[C@]4(C)CC[C@@H]3[C@@](C)(C2=O)[C@@H]([C@@H](O)C(=O)OC)C1(C)C` [SWIETENINE], the PFI was 49.1%.
For `COC1=C2C(C)(C)C(=O)CC[C@]2(C)[C@H]2CC[C@@]3(C)[C@H](c4ccoc4)C[C@H]4O[C@]43[C@]2(C)C1=O` [DIHYDROCEDRELONE METHYL ETHER], the PFI was 56.5%.
With `CC(=O)O[C@@H]1[C@H](O)[C@H]2C(C)(C)C(=O)C=C[C@]2(C)[C@H]2CC[C@@]3(C)[C@H](C45CC(O)OC4O5)C[C@@H]4O[C@@]43[C@]12C` (stereo partly drawn) [NIMONOL PP2] the PFI was 15.8%.
With `C/C=C(\C)C(=O)O[C@H]1C[C@@H](O)[C@@]2(C)CO[C@H]3[C@H]4O[C@@H]5C[C@@H](C6=CC(O)OC6=O)C(C)=C5[C@@]4(C)[C@H](CC(=O)OC)[C@]1(C)[C@@H]32` (stereo partly drawn) [DESACETYL SALANNOLIDE] the PFI was 28.44%.
`COC(=O)C[C@H]1[C@]2(C)C3=C(C)[C@H](c4ccoc4)C[C@H]3O[C@@H]2[C@@H]2OC(=O)[C@]3(C)C=CC(=O)[C@@]1(C)[C@@H]23` [NIMBOLIDE] gave a PFI of 37%.
`COC(=O)C[C@H]1[C@]2(C)C3=C(C)[C@H](C4=CCOC4=O)C[C@H]3O[C@@H]2[C@H](O)[C@@H]2[C@]1(C)C(=O)C=C[C@@]2(C)C(=O)OC` [DESACETYLNIMBIN MW] showed a PFI of 35.1%.
In the case of `C/C=C(\C)C(=O)O[C@H]1C[C@@H](OC(C)=O)[C@@]2(C)CO[C@H]3[C@@H](O)[C@@](C)([C@]45O[C@@]4(C)[C@H]4C[C@@H]5O[C@@H]5OC=C[C@@]54O)[C@@H]4[C@H](O)OC[C@@]14[C@@H]32` [AZADIRACHTIN-I], the PFI is reported as 32.2%.
`COC(=O)C[C@H]1[C@]2(C)C3=C(C)[C@H](c4ccoc4)C[C@H]3O[C@@H]2[C@H](O)[C@@H]2[C@]1(C)C(=O)C=C[C@@]2(C)C(=O)OC` [DEACETYLNIMBIN] showed a PFI of 34.7%.
